“And” between values parts separate entries of the source, which are not always exact repeats. Identical values can stand only once.
How the values were obtained:
Format in all cases: functional
OVCAR-3 = experiment: Growth inhibition of human OVCAR-3 cells assessed as growth percentage at 10 uM incubated for 48 hrs by sulforhodamine B assay relative to control; conditions: read-out: Activity
SR [1] = experiment: Growth inhibition of human SR cells assessed as growth percentage at 10 uM incubated for 48 hrs by sulforhodamine B assay relative to control; conditions: read-out: Activity
SN12C = experiment: Growth inhibition of human SN12C cells assessed as growth percentage at 0.01 uM incubated for 48 hrs by sulforhodamine B assay relative to control; conditions: read-out: Activity
MDA-MB-435 = experiment: Growth inhibition of human MDA-MB-435 cells assessed as growth percentage at 0.01 uM incubated for 48 hrs by sulforhodamine B assay relative to control; conditions: read-out: Activity
HT-29 = experiment: Growth inhibition of human HT-29 cells incubated for 48 hrs by sulforhodamine B assay; conditions: for GI50: HT-29; for CC50: HT-29, read-out: LC50 (the source's name)
NCI-H460 = experiment: Growth inhibition of human NCI-H460 cells assessed as growth percentage at 0.01 uM incubated for 48 hrs by sulforhodamine B assay relative to control; conditions: read-out: Activity
IGROV-1 = experiment: Growth inhibition of human IGROV-1 assessed as growth percent at 0.01 uM incubated for 48 hrs by sulforhodamine B assay relative to control; conditions: read-out: Activity
UO-31 = experiment: Growth inhibition of human UO-31 cells incubated for 48 hrs by sulforhodamine B assay
NCI-H322M [2] = experiment: Growth inhibition of human NCI-H322M cells assessed as growth percentage at 100 uM incubated for 48 hrs by sulforhodamine B assay relative to control; conditions: read-out: Activity
SF-268 = experiment: Growth inhibition of human SF-268 cells assessed as growth percentage at 0.01 uM incubated for 48 hrs by sulforhodamine B assay relative to control; conditions: read-out: Activity
NCI/ADR-RES = experiment: Growth inhibition of human NCI/ADR-RES cells assessed as growth percentage at 1 uM incubated for 48 hrs by sulforhodamine B assay relative to control; conditions: read-out: Activity
HOP-92 [3] = experiment: Growth inhibition of human HOP-92 cells incubated for 48 hrs by sulforhodamine B assay
HOP-92 [4] = experiment: Growth inhibition of human HOP-92 cells assessed as growth percentage at 0.1 uM incubated for 48 hrs by sulforhodamine B assay relative to control; conditions: read-out: Activity
NCI-H522 = experiment: Growth inhibition of human NCI-H522 cells assessed as growth percentage at 0.1 uM incubated for 48 hrs by sulforhodamine B assay relative to control; conditions: read-out: Activity
SK-OV-3 = experiment: Growth inhibition of human SK-OV-3 cells assessed as growth percentage at 1 uM incubated for 48 hrs by sulforhodamine B assay relative to control; conditions: read-out: Activity
NCI-H23 = experiment: Growth inhibition of human NCI-H23 cells assessed as growth percentage at 0.01 uM incubated for 48 hrs by sulforhodamine B assay relative to control; conditions: read-out: Activity
SNB-19 = experiment: Growth inhibition of human SNB-19 cells assessed as growth percentage at 100 uM incubated for 48 hrs by sulforhodamine B assay relative to control; conditions: read-out: Activity
A549 = experiment: Growth inhibition of human A549/ATCC cells assessed as growth percentage at 0.1 uM incubated for 48 hrs by sulforhodamine B assay relative to control; conditions: read-out: Activity
CCRF-CEM [5] = experiment: Growth inhibition of human CCRF-CEM cells incubated for 48 hrs by sulforhodamine B assay
RPMI-8226 = experiment: Growth inhibition of human RPMI-8226 cells assessed as growth percentage at 1 uM incubated for 48 hrs by sulforhodamine B assay relative to control; conditions: read-out: Activity
M14 = experiment: Growth inhibition of human M14 cells assessed as growth percentage at 0.01 uM incubated for 48 hrs by sulforhodamine B assay relative to control; conditions: read-out: Activity
HOP-92 [6] = experiment: Growth inhibition of human HOP-92 cells assessed as growth percentage at 1 uM incubated for 48 hrs by sulforhodamine B assay relative to control; conditions: read-out: Activity
HOP-62 = experiment: Growth inhibition of human HOP-62 cells assessed as growth percentage at 0.1 uM incubated for 48 hrs by sulforhodamine B assay relative to control; conditions: read-out: Activity
MDA-MB-231 = experiment: Growth inhibition of human MDA-MB-231/ATCC cells assessed as growth percentage at 10 uM incubated for 48 hrs by sulforhodamine B assay relative to control; conditions: read-out: Activity
COLO 205 = experiment: Growth inhibition of human COLO 205 cells assessed as growth percentage at 1 uM incubated for 48 hrs by sulforhodamine B assay relative to control; conditions: read-out: Activity
RXF 393 = experiment: Growth inhibition of human RXF 393 cells assessed as growth percentage at 10 uM incubated for 48 hrs by sulforhodamine B assay relative to control; conditions: read-out: Activity
MOLT-4 [7] = experiment: Growth inhibition of human MOLT-4 cells assessed as growth percentage at 0.01 uM incubated for 48 hrs by sulforhodamine B assay relative to control; conditions: read-out: Activity
DU-145 = experiment: Growth inhibition of human DU-145 cells assessed as growth percentage at 0.01 uM incubated for 48 hrs by sulforhodamine B assay relative to control; conditions: read-out: Activity
CCRF-CEM [8] = experiment: Growth inhibition of human CCRF-CEM cells assessed as growth percentage at 100 uM incubated for 48 hrs by sulforhodamine B assay relative to control; conditions: read-out: Activity
SR [9] = experiment: Growth inhibition of human SR cells incubated for 48 hrs by sulforhodamine B assay; conditions: for CC50: read-out: LC50 (the source's name)
MOLT-4 [10] = experiment: Growth inhibition of human MOLT-4 cells assessed as growth percentage at 0.1 uM incubated for 48 hrs by sulforhodamine B assay relative to control; conditions: read-out: Activity
HCT-15 [11] = experiment: Growth inhibition of human HCT-15 cells assessed as growth percentage at 1 uM incubated for 48 hrs by sulforhodamine B assay relative to control; conditions: read-out: Activity
SW-620 = experiment: Growth inhibition of human SW-620 cells assessed as growth percentage at 0.01 uM incubated for 48 hrs by sulforhodamine B assay relative to control; conditions: read-out: Activity
PC-3 = experiment: Growth inhibition of human PC-3 cells assessed as growth percentage at 100 uM incubated for 48 hrs by sulforhodamine B assay relative to control; conditions: read-out: Activity
NCI-H322M [12] = experiment: Growth inhibition of human NCI-H322M cells assessed as growth percentage at 0.1 uM incubated for 48 hrs by sulforhodamine B assay relative to control; conditions: read-out: Activity
HCT-15 [13] = experiment: Growth inhibition of human HCT-15 cells assessed as growth percentage at 0.01 uM incubated for 48 hrs by sulforhodamine B assay relative to control; conditions: read-out: Activity
NCI-H322M [14] = experiment: Growth inhibition of human NCI-H322M cells assessed as growth percentage at 10 uM incubated for 48 hrs by sulforhodamine B assay relative to control; conditions: read-out: Activity
K562 = experiment: Growth inhibition of human K562 cells assessed as growth percentage at 10 uM incubated for 48 hrs by sulforhodamine B assay relative to control; conditions: read-out: Activity
SR [15] = experiment: Growth inhibition of human SR cells assessed as growth percentage at 0.1 uM incubated for 48 hrs by sulforhodamine B assay relative to control; conditions: read-out: Activity

Nc1nc2[nH]c(CN3CCN(c4cc(Cl)cc(Cl)c4)CC3)c(CN3CCN(c4cc(Cl)cc(Cl)c4)CC3)c2c(=O)[nH]1
growth at 10 µM (OVCAR-3): 89.7% | growth at 10 µM (SR [1]): 12.1% | growth at 0.01 µM (SN12C): 100% | growth at 0.01 µM (MDA-MB-435): 89% | GI50 (HT-29): 1740 nM | TGI (HT-29; HT-29, 48 h): 3410 nM | CC50 (HT-29): 6700 nM | growth at 0.01 µM (NCI-H460): 105% | growth at 0.01 µM (IGROV-1): 104% | GI50 (UO-31; 48 h): 1170 nM and 11700 nM | TGI (UO-31; 48 h): 31800 nM and 3180 nM | growth at 100 µM (NCI-H322M [2]): -54% | growth at 0.01 µM (SF-268): 102% | growth at 1 µM (NCI/ADR-RES): 102% | GI50 (HOP-92 [3]; Homo sapiens, HOP-92): 1350 nM | TGI (HOP-92 [3]; Homo sapiens, HOP-92, 48 h): 3540 nM | growth at 0.1 µM (HOP-92 [4]): 73% | growth at 0.1 µM (NCI-H522): 97% | growth at 1 µM (SK-OV-3): 102% | growth at 0.01 µM (NCI-H23): 104% | growth at 100 µM (SNB-19): -16% | growth at 0.1 µM (A549): 94% | TGI (CCRF-CEM [5]; Homo sapiens, CCRF-CEM): 5520 nM | GI50 (CCRF-CEM [5]; Homo sapiens, CCRF-CEM, 48 h): 2070 nM | growth at 1 µM (RPMI-8226): 92% | growth at 0.01 µM (M14): 93% | growth at 1 µM (HOP-92 [6]): 65% | growth at 0.1 µM (HOP-62): 99% | growth at 10 µM (MDA-MB-231): 71.9% | growth at 1 µM (COLO 205): 85% | growth at 10 µM (RXF 393): 81% | growth at 0.01 µM (MOLT-4 [7]): 100% | growth at 0.01 µM (DU-145): 110% | growth at 100 µM (CCRF-CEM [8]): -30% | GI50 (SR [9]; Homo sapiens, SR): 1460 nM | TGI (SR [9]; Homo sapiens, SR): 4460 nM | CC50 (SR [9]): > 100000 nM | growth at 0.1 µM (MOLT-4 [10]): 104% | growth at 1 µM (HCT-15 [11]): 94% | growth at 0.01 µM (SW-620): 96% | growth at 100 µM (PC-3): -81% | growth at 0.1 µM (NCI-H322M [12]): 102% | growth at 0.01 µM (HCT-15 [13]): 98% | growth at 10 µM (NCI-H322M [14]): 64.3% | growth at 10 µM (K562): -17.6% | growth at 0.1 µM (SR [15]): 105%

CCCCCCCC(=O)Nc1nc2[nH]c(CN3CCN(Cc4cccc(F)c4)CC3)c(CN3CCN(Cc4cccc(F)c4)CC3)c2c(=O)[nH]1
growth at 10 µM (OVCAR-3): -95% | growth at 10 µM (SR [1]): -52.8% | growth at 0.01 µM (SN12C): 97% | growth at 0.01 µM (MDA-MB-435): 99% | GI50 (HT-29): 260 nM | CC50 (HT-29): 3760 nM | growth at 0.01 µM (NCI-H460): 94% | growth at 0.01 µM (IGROV-1): 98% | GI50 (UO-31; 48 h): 3800 nM and 380 nM | LC50 (concentration killing 50% of cells) (UO-31; Homo sapiens, UO-31): 4810 nM | TGI (UO-31; Homo sapiens, UO-31, 48 h): 1700 nM | growth at 100 µM (NCI-H322M [2]): -82% | growth at 0.01 µM (SF-268): 99% | growth at 1 µM (NCI/ADR-RES): 79% | TGI (HOP-92 [3]; 48 h): 2420 nM and 820 nM | GI50 (HOP-92 [3]; Homo sapiens, HOP-92): 1140 nM | LC50 (HOP-92 [3]; Homo sapiens, HOP-92): 5140 nM | growth at 0.1 µM (HOP-92 [4]): 86% | growth at 0.1 µM (NCI-H522): 94% | growth at 1 µM (SK-OV-3): 107% | growth at 0.01 µM (NCI-H23): 98% | growth at 100 µM (SNB-19): -83% | growth at 0.1 µM (A549): 98% | GI50 (CCRF-CEM [5]; 48 h): 250 nM | LC50 (CCRF-CEM [5]; 48 h): 100000 nM and > 1000 nM | GI50 (CCRF-CEM [5]; Homo sapiens, CCRF-CEM, 48 h): 251 nM | growth at 1 µM (RPMI-8226): 13% | growth at 0.01 µM (M14): 100% | growth at 1 µM (HOP-92 [6]): 59% | growth at 0.1 µM (HOP-62): 95% | growth at 10 µM (MDA-MB-231): -83% | growth at 1 µM (COLO 205): 74% | growth at 10 µM (RXF 393): -92.4% | growth at 0.01 µM (MOLT-4 [7]): 95% | growth at 0.01 µM (DU-145): 100% | growth at 100 µM (CCRF-CEM [8]): 8% | GI50 (SR [9]): 210 nM | TGI (SR [9]): 550 nM | GI50 (SR [9]; Homo sapiens, SR): 208 nM | TGI (SR [9]; Homo sapiens, SR): 548 nM | CC50 (SR [9]; Homo sapiens, SR): > 100000 nM | growth at 0.1 µM (MOLT-4 [10]): 95% | growth at 1 µM (HCT-15 [11]): 1% | growth at 0.01 µM (SW-620): 96% | growth at 100 µM (PC-3): -88% | growth at 0.1 µM (NCI-H322M [12]): 92% | growth at 0.01 µM (HCT-15 [13]): 98% | growth at 10 µM (NCI-H322M [14]): -41.2% | growth at 10 µM (K562): -65.6% | growth at 0.1 µM (SR [15]): 88%

From ChEMBL document CHEMBL4673219, “Novel 5,6-disubstituted pyrrolo[2,3-d]pyrimidine derivatives as broad spectrum antiproliferative agents: Synthesis, cell based assays, kinase profile and molecular docking study” (Bioorg Med Chem, 2018)
